# Assay results from patent US8476274B2, “Biaryl spiroaminooxazoline analogues as Alpha2C adrenergic receptor modulators” (Merck Sharp & Dohme Corp., priority 2008, dated 2013).
# pKi: −log10 of the molar value.
# Biological target: T1, α2C receptor (Homo sapiens, UniProt P18825)
# T1 sequence (P18825 1-462): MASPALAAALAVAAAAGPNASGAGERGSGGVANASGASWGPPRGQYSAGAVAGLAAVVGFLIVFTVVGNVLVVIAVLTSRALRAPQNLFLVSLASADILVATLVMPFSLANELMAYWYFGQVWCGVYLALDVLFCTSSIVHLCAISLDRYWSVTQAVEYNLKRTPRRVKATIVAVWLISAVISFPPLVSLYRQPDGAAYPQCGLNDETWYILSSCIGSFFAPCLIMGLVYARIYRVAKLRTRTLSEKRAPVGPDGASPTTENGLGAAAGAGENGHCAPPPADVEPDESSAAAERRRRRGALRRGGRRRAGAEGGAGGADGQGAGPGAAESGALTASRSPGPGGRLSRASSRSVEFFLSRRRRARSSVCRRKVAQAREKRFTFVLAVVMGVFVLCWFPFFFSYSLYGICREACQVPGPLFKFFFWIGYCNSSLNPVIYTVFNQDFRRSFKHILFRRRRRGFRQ
# Test: binding inhibition (Ki) at the α2C receptor
# Conditions: compounds classed as α2C antagonists; read-out: Ki at the α2C receptor subtype
# Experimental: A compound is defined to be an antagonist of the alpha-2C receptor if the compounds's efficacy at the α2C receptor is <30% Emax (GTPγS assay) and the binding inhibition of at the α2C receptor (Ki) is <500 nM, preferably <200 nM, and most preferably <20 nM.
# Efficacy agonist activity values (Emax, GTPγS assay) for α2A and α2C were determined by following the general procedure detailed by Umland et. al (“Receptor reserve analysis of the human α2c-adrenoceptor using [^35S]GTPγS and cAMP functional assays” European Journal of Pharmacology 2001, 411, 211-221). For the purposes of the present invention, a compound is defined to be a specific or at least functionally selective agonist of the α2C receptor subtype if the compound's efficacy at the α2C receptor is ≧30% Emax (GTPγS assay) and its efficacy at the α2A receptor is 35% Emax (GTPγS assay). Additionally, for the purposes of this invention, a compound is defined to be an antagonist of the α2C receptor subtype if the compound's efficacy at the α2C receptor is <30% Emax (GTPγS assay) and the Ki at the α2C receptor subtype was <500 nM, preferentially <200 nM, and most preferentially <20 nM.
row,SMILES,pKi
1,NC1=NC2(CCc3cccc(-c4ccccc4)c3C2)CO1 (racemic) [(±)-1G],> 6.70
2,CN(C)c1ncc(-c2cccc3c2CC2(CC3)COC(N)=N2)cn1 (racemic) [(±)-3],> 6.70
3,N#Cc1cccc(-c2cccc3c2CC2(CC3)COC(N)=N2)c1 (racemic) [(±)-6J],> 6.70
4,N#Cc1ccc(-c2cccc3c2CC2(CC3)COC(N)=N2)cc1 (racemic) [(±)-6K],> 6.70
5,Cn1nccc1-c1cccc2c1CC1(CC2)COC(N)=N1 (racemic) [(±)-6L],> 6.70
6,NC1=NC2(CO1)Cc1ccc(-c3ccccc3)cc1C2 (racemic) [(±)-8E],> 6.70
7,NC1=NC2(CO1)Cc1ccc(-c3cccnc3)cc1C2 (racemic) [(±)-8I],> 6.70
8,Cn1nccc1-c1ccc2c(c1)CC1(COC(N)=N1)C2 (racemic) [(±)-8R],> 6.70
9,Cc1noc(C)c1-c1ccc2c(c1)CC1(COC(N)=N1)C2 (racemic) [(±)-8S],> 6.70
10,NC1=NC2(CO1)Cc1ccc(-c3cncnc3)cc1C2 (racemic) [(±)-8],> 6.70
11,Cc1ncnc(C)c1-c1ccc2c(c1)CC1(CC2)COC(N)=N1 (racemic) [(±)-10B],> 6.70
12,NC1=NC2(CCc3ccc(-c4cccnn4)cc3C2)CO1 (racemic) [(±)-11],> 6.70
13,COc1ccc(-c2cncnc2)c2c1CCC1(COC(N)=N1)C2 (racemic) [(±)-16],> 6.70
14,NC1=NC2(CO1)Cc1cccc(-c3cn[nH]c3)c1C2 (racemic) [(±)-50K],> 6.70
15,Cc1n[nH]c(C)c1-c1cccc2c1CC1(COC(N)=N1)C2 (racemic) [(±)-50L],> 6.70
16,Cc1noc(C)c1-c1cccc2c1CC1(COC(N)=N1)C2 (racemic) [(±)-50M],> 6.70

# Further lines, results first:
row,pKi,SMILES
1,> 6.70,NC1=NC2(CCO1)CCc1c(cccc1-c1cncnc1)C2 (racemic) [(±)-57]
2,> 6.70,CC1CC2(COC(N)=N2)Cc2cccc(-c3cncnc3)c21 (racemic) [(±)-58]
3,> 6.70,Cc1n[nH]c(C)c1-c1ccc2c(c1)CC1(CC2)COC(N)=N1 (racemic) [(±)-101]
4,> 6.70,COc1cncc(-c2cccc3c2CC2(CC3)COC(N)=N2)c1 (racemic) [(±)-112]
5,> 6.70,Cc1noc(C)c1-c1cccc2c1CC1(CC2)COC(N)=N1 (racemic) [(±)-113]
6,> 6.70,Cc1n[nH]c(C)c1-c1cccc2c1CC1(CC2)COC(N)=N1 (racemic) [(±)-114]
7,> 6.70,NC1=NC2(CCc3c(cccc3-c3cncs3)C2)CO1 (racemic) [(±)-129]
8,> 6.70,COc1ncc(-c2cccc3c2CCC2(COC(N)=N2)C3)cn1 (racemic) [(±)-133]
9,> 6.70,NC1=N[C@]2(CCc3cc(Br)ccc3C2)CO1 (racemic) [(±)-340]
10,> 6.70,NC1=N[C@@]2(CCc3c(cccc3-c3ccoc3)C2)CO1 [Compound 21I]
11,> 6.70,Cn1nccc1-c1cccc2c1CC[C@]1(COC(N)=N1)C2 [Compound 21J]
12,> 6.70,NC1=N[C@@]2(CCc3c(cccc3-c3cccnc3)C2)CO1 [Compound 21K]
13,> 6.70,NC1=N[C@]2(CCc3c(cccc3-c3cncs3)C2)CO1 [Compound 119]
14,> 6.70,NC1=N[C@@]2(CCc3ccc(-c4cncnc4)cc3C2)CO1 [Compound 142]
15,> 6.70,NC1=N[C@@]2(CCc3cccc(-c4ccccc4)c3C2)CO1 [Compound 143]
16,> 6.70,NC1=N[C@@]2(CCc3cccc(-c4cccnc4)c3C2)CO1 [Compound 145]
17,> 6.70,NC1=N[C@]2(CCc3cccc(-c4cncnc4)c3C2)CO1 [Compound 149]
18,> 6.70,Cc1ccncc1-c1cccc2c1C[C@]1(CC2)COC(N)=N1 [Compound 150]
19,> 6.70,Cc1ccncc1-c1cccc2c1C[C@@]1(CC2)COC(N)=N1 [Compound 151]
20,> 6.70,CC1=N[C@@]2(CCc3c(cccc3-c3cncnc3)C2)CN1 [Compound 213]
21,> 6.70,NC1=N[C@@]2(CCc3c(cccc3-c3ccco3)C2)CN1 [Compound 238]
